Results from the supplement of paper PMC10307832.

Columns and labels:
Experiment in all cases: relative viability (nuclei count vs DMSO), 5 days (fraction); higher = more cells survive
Vismodegib + Luminespib = compound: CS(=O)(=O)c1ccc(C(=O)Nc2ccc(Cl)c(-c3ccccn3)c2)c(Cl)c1 [Vismodegib] + CCNC(=O)c1noc(-c2cc(C(C)C)c(O)cc2O)c1-c1ccc(CN2CCOCC2)cc1 [Luminespib] (partner 0.01 µM)
Method in brief: (§1)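 Lung cancer cell lines in 1536-well plates were dosed by pin tool the day after seeding, either with one drug alone or with a fixed anchor-drug dose plus five library-drug doses (not always all listed) in √10 steps. After 5 days, cells were fixed and their nuclei stained in one step (final 0.05% Triton X-100, 1% formaldehyde, 1 ug/ml Hoechst), then counted on 4× images. Relative viability is the nuclei count in treated wells divided by that in vehicle wells. Values are medians of duplicate plates.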

Vismodegib + Tozasertib = compound: CS(=O)(=O)c1ccc(C(=O)Nc2ccc(Cl)c(-c3ccccn3)c2)c(Cl)c1 [Vismodegib] + Cc1cc(Nc2cc(N3CCN(C)CC3)nc(Sc3ccc(NC(=O)C4CC4)cc3)n2)n[nH]1 [Tozasertib] (partner 0.1 µM)
Method in brief: as §1

VE-821 + Tozasertib = compound: CS(=O)(=O)c1ccc(-c2cnc(N)c(C(=O)Nc3ccccc3)n2)cc1 [VE-821] + Cc1cc(Nc2cc(N3CCN(C)CC3)nc(Sc3ccc(NC(=O)C4CC4)cc3)n2)n[nH]1 [Tozasertib] (partner 0.1 µM)
Method in brief: as §1

Ruxolitinib + AZD7762 = compound: N#CC[C@H](C1CCCC1)n1cc(-c2ncnc3[nH]ccc23)cn1 [Ruxolitinib] + NC(=O)Nc1cc(-c2cccc(F)c2)sc1C(=O)N[C@H]1CCCNC1 [AZD7762] (partner 0.2 µM)
Method in brief: as §1

Cell Line | relative viability (Vismodegib + Luminespib; first compound 0.08 µM) | relative viability (Vismodegib + Luminespib; first compound 0.253 µM) | relative viability (Vismodegib + Luminespib; first compound 0.8 µM) | relative viability (Vismodegib + Luminespib; first compound 2.53 µM) | relative viability (Vismodegib + Luminespib; first compound 8 µM) | relative viability (Vismodegib + Tozasertib; first compound 0.08 µM) | relative viability (Vismodegib + Tozasertib; first compound 0.253 µM) | relative viability (Vismodegib + Tozasertib; first compound 0.8 µM) | relative viability (Vismodegib + Tozasertib; first compound 2.53 µM) | relative viability (Vismodegib + Tozasertib; first compound 8 µM) | relative viability (VE-821 + Tozasertib; first compound 0.08 µM) | relative viability (VE-821 + Tozasertib; first compound 0.253 µM) | relative viability (VE-821 + Tozasertib; first compound 0.8 µM) | relative viability (VE-821 + Tozasertib; first compound 2.53 µM) | relative viability (VE-821 + Tozasertib; first compound 8 µM) | relative viability (Ruxolitinib + AZD7762; first compound 0.08 µM) | relative viability (Ruxolitinib + AZD7762; first compound 0.253 µM) | relative viability (Ruxolitinib + AZD7762; first compound 0.8 µM) | relative viability (Ruxolitinib + AZD7762; first compound 2.53 µM) | relative viability (Ruxolitinib + AZD7762; first compound 8 µM)
NCI-H441 | 0.348 | 0.281 | 0.284 | 0.304 | 0.38 | 0.576 | 0.63 | 0.567 | 0.524 | 0.584 | 0.78 | 0.399 | 0.666 | 0.564 | 0.511 | 1.29 | 1.09 | 1.22 | 1.16 | 1.05
NCI-H2347 | 0.402 | 0.759 | 0.709 | 0.399 | 0.586 | 0.589 | 0.574 | 0.554 | 0.485 | 0.574 | 0.506 | 0.6 | 0.272 | 0.498 | 0.506 | 0.8 | 0.89 | 0.766 | 0.769 | 0.877
CAL-12T | 0.531 | 0.366 | 0.436 | 0.503 | 0.575 | 0.301 | 0.28 | 0.321 | 0.35 | 0.328 | 0.307 | 0.227 | 0.189 | 0.207 | 0.147 | 0.623 | 0.688 | 0.694 | 0.732 | 0.608
HCC-827 | 0.658 | 0.762 | 0.691 | 0.589 | 0.733 | 0.42 | 0.419 | 0.432 | 0.392 | 0.423 | 0.427 | 0.424 | 0.391 | 0.394 | 0.372 | – | 0.178 | 0.238 | 0.236 | 0.308
A-427 | 0.912 | 0.831 | 0.856 | 0.876 | 0.824 | 0.233 | 0.193 | 0.22 | 0.196 | 0.21 | 0.231 | 0.186 | 0.217 | 0.192 | 0.144 | 0.821 | 0.763 | 0.729 | 0.453 | 0.508
NCI-H650 | 0.843 | 0.791 | 0.638 | 0.802 | 0.865 | 0.725 | 0.778 | 0.705 | 0.743 | 0.718 | 0.744 | 0.744 | 0.643 | 0.765 | 0.707 | 0.951 | 1.06 | 1.01 | 0.993 | 0.707
SW 900 | 0.183 | 0.164 | 0.164 | 0.19 | 0.163 | 0.52 | 0.574 | 0.56 | 0.426 | 0.435 | 0.604 | 0.493 | 0.38 | 0.333 | 0.248 | 0.656 | 0.525 | 0.722 | 0.891 | 0.833
NCI-H727 | 0.428 | 0.518 | 0.322 | 0.359 | 0.422 | 0.785 | 0.619 | 0.644 | 0.53 | 0.62 | 0.601 | 0.633 | 0.505 | 0.67 | 0.488 | 0.701 | 0.461 | 0.587 | 0.8 | 0.979
ABC-1 | 0.577 | 0.381 | 0.551 | 0.672 | 0.405 | 0.15 | 0.153 | 0.182 | 0.184 | 0.158 | 0.201 | 0.17 | 0.15 | 0.181 | 0.16 | – | 1.07 | 0.834 | 0.743 | 0.928
NCI-H1793 | – | 0.214 | 0.189 | 0.482 | 0.19 | – | 0.336 | 0.393 | 0.269 | 0.279 | 0.323 | 0.257 | 0.182 | 0.234 | 0.159 | 0.759 | 0.502 | 0.595 | 0.437 | 0.391
NCI-H23 | 0.25 | – | 0.198 | 0.258 | 0.227 | 0.362 | 0.425 | 0.386 | 0.297 | 0.301 | 0.323 | 0.559 | 0.263 | 0.192 | 0.179 | 0.456 | 0.303 | 0.279 | 0.206 | 0.277
NCI-H1395 | 0.708 | 0.764 | 0.535 | 0.624 | 0.621 | 0.823 | 0.771 | 0.71 | 0.667 | 0.81 | 0.765 | 0.716 | 0.671 | 0.703 | 0.762 | 0.422 | 0.385 | 0.424 | 0.356 | 0.407
NCI-H2170 | 0.677 | 0.513 | 0.762 | 0.645 | 0.7 | 0.733 | 0.664 | 0.673 | 0.675 | 0.743 | 0.744 | 0.727 | 0.662 | 0.794 | 0.477 | 0.908 | 0.834 | 0.959 | 0.76 | 0.706
LOU-NH91 | 0.28 | 0.334 | 0.352 | 0.366 | 0.301 | 0.622 | 0.688 | 0.644 | 0.656 | 0.675 | 0.69 | 0.666 | 0.665 | 0.701 | 0.54 | 0.757 | 0.664 | 0.797 | 0.74 | 0.73
NCI-H647 | 0.505 | 0.227 | 0.219 | 0.125 | 0.181 | 0.253 | 0.205 | 0.265 | 0.188 | 0.227 | 0.372 | 0.26 | 0.261 | 0.238 | 0.164 | 0.398 | 0.499 | 0.421 | 0.439 | 0.366
LXF-289 | 0.625 | 0.691 | 0.764 | 0.611 | 0.738 | 0.22 | 0.185 | 0.2 | 0.224 | 0.213 | 0.246 | 0.196 | 0.205 | 0.193 | 0.119 | 1.06 | 1.15 | 1.11 | 1.04 | 1
PC-3 [JPC-3] | 0.737 | 0.651 | 0.689 | 0.653 | 0.745 | 0.932 | 0.87 | 0.933 | 0.852 | 0.873 | 0.956 | 0.819 | 0.881 | 0.805 | 0.787 | – | 0.82 | 0.866 | 0.946 | 0.814
